Earlier results as cited in US20250231185A1, “Coronavirus T Cell Epitopes, Megapools and Uses Thereof” (La Jolla Institute for Immunology, priority 2021, published 2025).
Entries after “also recorded” stand apart in the source; their conditions may differ.

Test system: CD4+ T cells
Settings: cited from earlier work; for Dominant: SARS-CoV-2-derived CD4 epitopes, Yes = recognized by 3 or more donors/different studies; for Restriction: T cell subset (CD4 or CD8) recognizing the SARS-CoV-2 epitope; for Allele(s): HLA class II allele(s) identified as MHC restriction elements of the CD4 epitope

Row | Substance | Dominant | Restriction | Allele(s)
1 | 95 (GTWLTYTGAIKLDDK) [compound 95] | Yes (more dominant epitopes are defined by being recognized by 3 or more donors/different studies) | CD4 | –
2 | 71 (EGALNTPKDHIGTRN) [compound 71] | – | CD4 | –
3 | 35 (IAGHHLGRCDIKDLP) [compound 35] | Yes (more dominant epitopes are defined by being recognized by 3 or more donors/different studies) | CD4 | –
4 | 83 (RRGPEQTQGNFGDQE) [compound 83] | – | CD4 | –
5 | 31 (GAVILRGHLRIAGHH) [compound 31] | – | CD4 | DRB1*13:01, DRB1*15:01
6 | 39 (ATSRTLSYYKLGASQ) [compound 39] | – | CD4 | DQB1*05:01, DQB1*05:03,; also recorded: DRB1*16:01
7 | 54 (SWFTALTQHGKEDLK) [compound 54] | Yes (more dominant epitopes are defined by being recognized by 3 or more donors/different studies) | CD4 | –
8 | 101 (ILLNKHIDAYKTFPP) [compound 101] | Yes (more dominant epitopes are defined by being recognized by 3 or more donors/different studies) | CD4 | DRB1*14:06, DRB1*15:01
9 | 30 (GAVILRGHLRIAGHHLGR) [compound 30] | Yes (more dominant epitopes are defined by being recognized by 3 or more donors/different studies) | CD4 | –
10 | 22 (RLFARTRSMWSFNPE) [compound 22] | – | CD4 | DQB1*05:03, DRB1*14:01
11 | 19 (CLVGLMWLSYFIASF) [compound 19] | Yes (more dominant epitopes are defined by being recognized by 3 or more donors/different studies) | CD4 | DQB1*05:01, DQB1*05:03,; also recorded: DRB1*12:01, DRB1*12:02
12 | 6 (LLEQWNLVIGFLFLT) [compound 6] | – | CD4 | DQB1*02:01, DQB1*05:03
13 | 80 (KRTATKAYNVTQAFG) [compound 80] | Yes (more dominant epitopes are defined by being recognized by 3 or more donors/different studies) | CD4 | DQB1*06:02, DQB1*06:03
14 | 69 (KDGIIWVATEGALNT) [compound 69] | Yes (more dominant epitopes are defined by being recognized by 3 or more donors/different studies) | CD4 | –
15 | 52 (TFGGPSDSTGSNQNG) [compound 52] | – | CD4 | DQB1*03:01
16 | 24 (SFNPETNILLNVPLH) [compound 24] | – | CD4 | DRB1*01:02
17 | 108 (EEIAIILASFSASTS) [compound 108] | – | CD4 | DQB1*02:02, DQB1*03:02,; also recorded: DRB1*04:10, DRB1*07:01
18 | 94 (PSGTWLTYTGAIKLD) [compound 94] | Yes (more dominant epitopes are defined by being recognized by 3 or more donors/different studies) | CD4 | DQB1*06:03, DRB1*01:02,; also recorded: DRB1*01:03, DRB1*07:01,; also recorded: DRB1*15:01
19 | 100 (FKDQVILLNKHIDAY) [compound 100] | Yes (more dominant epitopes are defined by being recognized by 3 or more donors/different studies) | CD4 | DRB1*03:01, DRB1*14:01,; also recorded: DRB1*14:06, DRB1*15:01,; also recorded: DRB1*16:02

Row | Substance | Dominant | Restriction | Allele(s)
20 | 37 (IKDLPKEITVATSRT) [compound 37] | Yes (more dominant epitopes are defined by being recognized by 3 or more donors/different studies) | CD4 | –
21 | 86 (TDYKHWPQIAQFAPS) [compound 86] | – | CD4 | –
22 | 29 (SELVIGAVILRGHLR) [compound 29] | Yes (more dominant epitopes are defined by being recognized by 3 or more donors/different studies) | CD4 | DQB1*06:02, DQB1*06:03,; also recorded: DRB1*01:02, DRB1*13:01,; also recorded: DRB1*14:01, DRB1*15:01,; also recorded: DRB1*16:01
23 | 76 (GKGQQQQGQTVTKKS) [compound 76] | – | CD4 | –
24 | 92 (GMEVTPSGTWLTYTGAIKLD) [compound 92] | Yes (more dominant epitopes are defined by being recognized by 3 or more donors/different studies) | CD4 | –
25 | 32 (LRGHLRIAGHHLGRC) [compound 32] | Yes (more dominant epitopes are defined by being recognized by 3 or more donors/different studies) | CD4 | DRB1*11:01, DRB1*11:04
26 | 1 (SEETGTLIVNSVLLF) [compound 1] | – | CD4 | DQB1*03:01
27 | 50 (PQNQRNAPRITFGGP) [compound 50] | – | CD4 | –
28 | 5 (EELKKLLEQWNLVIG) [compound 5] | – | CD4 | DQB1*05:01, DQB1*05:02
29 | 68 (NKDGIIWVATEGALN) [compound 68] | Yes (more dominant epitopes are defined by being recognized by 3 or more donors/different studies) | CD4 | DQB1*02:01, DQB1*02:02,; also recorded: DQB1*03:02, DQB1*05:03,; also recorded: DRB1*04:04, DRB1*07:01
30 | 72 (AIVLQLPQGTTLPKG) [compound 72] | Yes (more dominant epitopes are defined by being recognized by 3 or more donors/different studies) | CD4 | –
31 | 43 (SYYKLGASQRVAGDS) [compound 43] | Yes (more dominant epitopes are defined by being recognized by 3 or more donors/different studies) | CD4 | DQB1*03:01, DRB1*01:01,; also recorded: DRB1*07:01
32 | 9 (WICLLQFAYANRNRF) [compound 9] | – | CD4 | DQB1*05:03, DRB1*03:01,; also recorded: DRB1*14:01
33 | 89 (QFAPSASAFFGMSRI) [compound 89] | – | CD4 | DRB1*07:01
34 | 10 (QFAYANRNRFLYIIK) [compound 10] | Yes (more dominant epitopes are defined by being recognized by 3 or more donors/different studies) | CD4 | DRB1*14:01
35 | 46 (SGFAAYSRYRIGNYK) [compound 46] | Yes (more dominant epitopes are defined by being recognized by 3 or more donors/different studies) | CD4 | DRB1*15:01
36 | 23 (TRSMWSFNPETNILL) [compound 23] | – | CD4 | DQB1*05:03, DRB1*01:02
37 | 57 (GVPINTNSSPDDQIG) [compound 57] | – | CD4 | –
38 | 44 (LGASQRVAGDSGFAA) [compound 44] | Yes (more dominant epitopes are defined by being recognized by 3 or more donors/different studies) | CD4 | –

Row | Substance | Dominant | Restriction | Allele(s)
39 | 103 (QKKQQTVTLLPAADL) [compound 103] | – | CD4 | DRB1*01:02
40 | 66 (RWYFYYLGTGPEAGL) [compound 66] | Yes (more dominant epitopes are defined by being recognized by 3 or more donors/different studies) | CD4 | –
41 | 38 (KEITVATSRTLSYYK) [compound 38] | Yes (more dominant epitopes are defined by being recognized by 3 or more donors/different studies) | CD4 | DQB1*06:03, DRB1*03:01,; also recorded: DRB1*07:01, DRB1*14:01,; also recorded: DRB1*14:06, DRB1*15:01,; also recorded: DRB1*16:02
42 | 15 (VLAAVYRINWITGGI) [compound 15] | Yes (more dominant epitopes are defined by being recognized by 3 or more donors/different studies) | CD4 | DQB1*05:01, DQB1*05:03,; also recorded: DRB1*12:02, DRB1*14:01
43 | 70 (IWVATEGALNTPKDH) [compound 70] | – | CD4 | –
44 | 34 (LRIAGHHLGRCDIKD) [compound 34] | – | CD4 | –
45 | 91 (AFFGMSRIGMEVTPS) [compound 91] | – | CD4 | –
46 | 16 (YRINWITGGIAIAMA) [compound 16] | Yes (more dominant epitopes are defined by being recognized by 3 or more donors/different studies) | CD4 | DQB1*02:02, DQB1*03:01,; also recorded: DQB1*05:01, DQB1*05:02,; also recorded: DQB1*05:03, DQB1*06:02,; also recorded: DQB1*06:03, DRB1*07:01,; also recorded: DRB1*10:01, DRB1*12:01,; also recorded: DRB1*13:01, DRB1*14:01,; also recorded: DRB1*15:01, DRB1*16:01
47 | 97 (LTYTGAIKLDDKDPN) [compound 97] | – | CD4 | DRB1*07:01
48 | 115 (IATNGPLKVGGSCVL) [compound 115] | – | CD4 | DRB1*13:02
49 | 90 (ASAFFGMSRIGMEVT) [compound 90] | Yes (more dominant epitopes are defined by being recognized by 3 or more donors/different studies) | CD4 | DQB1*05:03, DRB1*01:02,; also recorded: DRB1*14:01
50 | 14 (LLWPVTLACFVLAAV) [compound 14] | – | CD4 | DQB1*05:01, DQB1*05:03,; also recorded: DQB1*06:03
51 | 11 (NRNRFLYIIKLIFLW) [compound 11] | – | CD4 | DQB1*02:01, DQB1*05:03,; also recorded: DRB1*03:01, DRB1*12:01
52 | 4 (FYVYSRVKNLNSSRV) [compound 4] | Yes (more dominant epitopes are defined by being recognized by 3 or more donors/different studies) | CD4 | –
53 | 106 (AADLDDFSKQLQQSM) [compound 106] | – | CD4 | –
54 | 93 (GMEVTPSGTWLTYTG) [compound 93] | – | CD4 | –
55 | 75 (LLLLDRLNQLESKMS) [compound 75] | Yes (more dominant epitopes are defined by being recognized by 3 or more donors/different studies) | CD4 | DQB1*05:01, DRB1*03:01,; also recorded: DRB1*11:01, DRB1*12:01,; also recorded: DRB1*14:01, DRB1*15:01
56 | 77 (AAEASKKPRQKRTAT) [compound 77] | Yes (more dominant epitopes are defined by being recognized by 3 or more donors/different studies) | CD4 | –
